# Patent US11590101B2, “Use of a composition comprising 7-hydroxymatairesinol” (LINNEA S.A., priority 2017, dated 2023)
# Key:
# [1] = HMR plasma levels assay (LC-MS/MS); assay type: in vivo; conditions: rat, oral, rats fed 4 weeks with 5% sucrose enriched food with HMR (10 mg/Kg per day), all active treatment groups
# Experimental: Concentration of HMR and its major metabolite enterolactone was measured in plasma samples (50 μL) from rats fed for 4 weeks with 5% sucrose enriched food with HMR, using an LC-MS/MS system (AP14500 Qtrap ABSciex).
# Calibration curves in the range from 0.1 ng/mL to 100 ng/mL were obtained from measurements on control samples containing the pure analytes, prepared from stock solutions of HMR and enterolactone in MeOH at the concentration of 1 mg/mL. Said stock solutions were diluted in acetonitrile (ACN) at a concentration of 250 μg/mL, then working solutions were prepared by sequential dilution in ACN.
# 45 μL of plasma and 5 μL of working solution were added to 300 μL of an ACN solution containing the internal standard catechin (conc. 200 ng/mL). After mixing, samples were centrifuged for 5 min at 3000 g at 5° C., and injected into LC-MS/MS.
# The plasma samples from the in vivo treatment were prepared subjecting 50 μl of sample to centrifugation for 5 min at 3000 g at 5° C., and were injected into LC-MS/MS.
# Calibration curves allowed determining, by comparison, the amount of each analytes in the plasma samples obtained from the rats of the study.
# [2] = test system: rodent model of Parkinson's disease-like nigrostriatal neurodegeneration caused by stereotaxic injection of 6-OHDA; experiment: Nigrostriatal damage evaluation by TH immunohistochemistry in 6-OHDA model; assay type: in vivo, rat
# [3] = test system: microglia in the lesioned SNc; experiment: Neuroinflammation evaluation through microglia activation assessment (CD11b staining of lesioned SNc); assay type: in vivo, rat; set-up: key to Colburn's score (microglia morphology): Resting stage (score 0): microglial cells are ramified, well spaced-out, with a small cell body.; Stage 1 (score +): microglial cells are ramified, with a decreased intercellular space.; Stage 2 (score ++): microglial cells show a loss of ramification and increased density.; Stage 3 (score +++): microglial cells show short and think ramifications; conditions: for Colburn's score (microglia morphology): control group ++
# Experimental: The evaluation of the 6-OHDA induced neuroinflammation was carried out via immunofluorescent staining of coronal SNc sections of both HMR-treated and control animals.
# Microglia activation was assessed by observing sections of the lesioned SNc stained for CD11 b, under low and medium magnification (20×-40×), both quantitatively, by counting the microglial cells in the lesioned SNc, and qualitatively, analysing the morphological changes of the cells.
# Mouse anti CD11b (MCA275R, Serotec, 1:300) primary antibody was used to assess microglia activation and density in the SNc. Anti-TH primary antibody was added for localization and cell count. Goat anti-mouse AlexaFluor488 and goat anti-rabbit AlexaFluor594 (Life Sciences, 1:300) were used as secondary antibodies.
# Cell count was performed by analysing three different SNc sections, chosen according to rostro-caudal coordinates.
# Morphological changes mirroring the state of activation were scored according to the Colburn scale. Cell density was assessed by counting CD11 b+ cells from a stack of 16 pictures (in a 0.04 mm^2 frame, 1 μm-thick, 40× magnification) taken from three discrete areas of the same SNc section.
# Colburn's scale takes into account four activation stages, which differ for the cells morphology and density, and are summarized below.
# Resting stage (score 0): microglial cells are ramified, well spaced-out, with a small cell body.
# Stage 1 (score +): microglial cells are ramified, with a decreased intercellular space.
# Stage 2 (score ++): microglial cells show a loss of ramification and increased density.
# Stage 3 (score +++): microglial cells show short and think ramifications.
# [4] = test system: microglia in the lesioned SNc; experiment: Analysis of microglia polarization (CD32+ M1 / CD206+ M2); assay type: in vivo, rat; conditions: POST group; vehicle mainly M1, no M2 detected
# Experimental: The analysis of microglia polarization was performed by evaluating the percentage of CD32+ and CD206+ cells, respectively M1 and M2 phenotypes marker, of the total microglia cells in the lesioned SNc, using respectively CD32 or CD206 (Santa Cruz, 1:300) antibodies.
# Since no significant differences in microglial activation were observed between vehicle-treated animals and animals that received HMR before the intra-striatal injection of 6-OHDA, microglia polarization was evaluated only in the groups treated with HMR after 6-OHDA infusion.
# [5] = Oxidative stress evaluation (plasma GSH/GSSG, Glutathione assay kit); assay type: in vivo, rat; conditions: POST group; not reaching statistical significance
# Experimental: Plasma levels of reduced (GSH) and oxidized (GSSG) glutathione were estimated by using a biochemical Glutathione assay kit (Cayman Chemical), as an index of antioxidant effect of HMR treatment.
# Results were expressed as a GSH/GSSG ratio.
# Since no significant difference in neuroinflammation was observed between vehicle-treated animals and animals that received HMR before the intra-striatal injection of 6-OHDA, oxidative stress was evaluated only in the groups treated with HMR after 6-OHDA infusion.
# [6] = Food consumption and body weight monitoring; assay type: in vivo, rat; conditions: monitored daily throughout the experiments
# Excerpt: Food consumption and body weight changes were monitored daily.
# [7] = PRE group, day 28 post-surgery, same in HMR-treated and control animals
smiles,measurement,setting,value
"COc1cc(CC2C(=O)OCC2C(O)c2ccc(O)c(OC)c2)ccc1O (centres unmarked) [HMR, 7-hydroxymatairesinol]",concentration at 4 weeks,[1],0.92 ± 0.74 ng/mL
same,Reduction of TH+ terminal loss in lesioned striatum versus control,"[2]; POST group: HMR 10 mg/Kg per day for 4 weeks after 6-OHDA, day 28, p<0.05",about 32%
same,Reduction of the 6-OHDA induced loss of TH+ neurons in lesioned SNc versus vehicle,"[2]; POST group: HMR 10 mg/Kg per day for 4 weeks after 6-OHDA, day 28, p=0.055",about 20%
same,"TH+ neurons depletion in the SNc, lesioned side versus contralateral hemisphere",[2]; [7],up to 55%
same,"TH+ terminals loss in the striatum, lesioned side",[2]; [7],≤ 65%
same,Nigrostriatal damage (striatal or SNc level) versus vehicle-treated animals,[2]; PRE group: HMR 10 mg/Kg per day in food for 4 weeks before 6-OHDA,no differences in nigrostriatal damage
same,Colburn's score (microglia morphology),[3]; POST group (HMR after 6-OHDA),+
same,Density of CD11b+ cells in the SNc,"[3]; POST group, vehicle-treated group 750 cells/mm^2, significant decrease",550 cells/mm^2
same,Microglial cell count versus vehicle-treated animals,[3]; PRE group,no differences in the microglial cell count
same,Colburn's score (microglia morphology),[3]; PRE group (HMR before 6-OHDA),++
same,Number of CD11b+ cells per mm^2 of SNc,"[3]; PRE group, average, both HMR and vehicle groups",750 cells/mm^2
same,Microglia polarization phenotype (M1 CD32+ / M2 CD206+),[4],"mainly oriented toward the neuroprotective, M2 (CD11b+/CD206+) phenotype"
same,Plasma GSH/GSSG ratio versus vehicle-treated animals,[5],trend toward an increased GSH/GSSG ratio
same,"Food intake or weight gain, treated versus untreated rats",[6],No differences
